Structures are written as SMILES. Calls of active or inactive are those of the source.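 How the source made its calls: active means EC50 under a set limit in control cells lacking the mosquito receptor, marking a fluorescence artifact; inactive means the rest.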 Where only a bound is given, the exact number is not on record here.

A word on the EC50: it is the midpoint of the concentration-response curve.

For this experiment, the target named is HEK293 Galpha15/GCaMP6s without NPYLR7, calcium fluorescence. Description: calcium response in NPYLR7-null HEK293 cells, dose response, counter-screen for mosquito NPYLR7 agonist project, cell-based, HEK293 lacking NPYLR7 (AID 1259426).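 Further: potency for a rise in fluorescence over baseline.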 Background: The purpose of a counterscreen is to sort out artefacts and off-target activity.
As to `COc1ccc(C(=O)C=Cc2cc(Br)c(O)c(OC)c2)cc1F`, the EC50 was less than 0.039 µM.
As for `CCOc1cc(/C=C(\C#N)c2nc3ncc(Br)cc3[nH]2)ccc1O`, the figure is 2.3 µM; as for `O=C(c1nccc2ccccc12)N1CCN(CC2CCCC2)CC1`, > 20 µM (inactive); as for `O=C(O)CCn1c(O)c(C=C2C=Nc3ccccc32)sc1=S`, 12 µM.
To `COc1ccc2c(c1)OCC(C=C(C#N)S(=O)(=O)c1ccc(Br)cc1)=C2` belongs > 20 µM (inactive); to `C(/C=C/CC=Nc1ccccc1)=Nc1ccccc1`, 14.5 µM; to `NC(=O)CN1c2cccc3cccc(c23)S1(=O)=O`, > 20 µM (inactive).
As for `COc1cc(/C=C2\SC(=S)N(C(CC(=O)O)C(=O)O)C2=O)ccc1O` (stereo unspecified), the figure is 9.71 µM.
In the case of `CCOC(=O)C1=C(C)NC(C)=C(C(=O)OCC)C1c1cc(Cl)ccc1OC(F)F`, the EC50 was 14.7 µM.
To `COc1ccc(/C=C2\Oc3c(ccc4c3CN(C3CCS(=O)(=O)C3)CO4)C2=O)cc1` (stereo unspecified) belongs 8.35 µM; to `COc1cc(/C=C2\C(=N)N3N=CSC3=NC2=O)cc(Br)c1OC(=O)c1ccco1`, 10 µM.
As for `COc1cccc(CN2C(=O)c3cccc(N)c3C2=O)c1`, the figure is > 20 µM (inactive); as for `COc1cc(C=C2Oc3cc(O)ccc3C2=O)cc(OC)c1OC`, 4.83 µM.
On to `C[C@@H](NC(=O)CN1Cc2ccc(N3CCOCC3)nc2C1=O)c1ccccc1`, for which the EC50 was > 20 µM (inactive).
To `COc1ccc(-n2ccnc2-c2ccc(C#CC(C)(C)O)cc2)cn1` belongs > 20 µM (inactive); to `CCN1CCc2c(sc(NC(=O)c3ccccc3)c2-c2nc3ccccc3s2)C1`, > 20 µM (inactive); to `COc1ccc(Cl)cc1NC(=O)/C(C#N)=C/c1coc2ccc(C)cc2c1=O`, > 20 µM (inactive).
To `Cc1c(NC(=O)COC(=O)C(C#N)=Cc2ccc(N(C)C)cc2)c(=O)n(-c2ccccc2)n1C` belongs > 20 µM (inactive); to `CCOc1cccc(C=C2Oc3cc(O)ccc3C2=O)c1OC`, > 20 µM (inactive); to `COCCCNCc1c(-c2ccc(F)cc2)noc1N1CCOCC1`, > 20 µM (inactive).
As for `COc1cc(C=CC(=O)c2ccc3c(c2)OCCO3)cc(Br)c1O`, the figure is 0.151 µM.
For the molecule `COc1ccc(CCN2COc3ccc4c(c3C2)O/C(=C\c2cccnc2)C4=O)cc1`, the EC50 is > 20 µM (inactive).
As for `N#CC1C(=N)Oc2cc(O)ccc2C1c1ccccc1I` (stereo unspecified), the figure is 7.42 µM; as for `CN(C)/C=C1\C(=O)N(c2c(Cl)cccc2Cl)c2cc(C=C(C#N)C#N)ccc21`, 18.4 µM; as for `CC(=O)Nc1sc2c(c1-c1nc3ccccc3s1)CCN(Cc1ccccc1)C2`, 3.18 µM.
To `O=C(NCCSc1ccc(Cl)cc1)c1ccc2c(=O)n3c(nc2c1)CCC3` belongs > 20 µM (inactive).
To `COc1cc(/C=C2\SC(=S)N(c3cccc(C(=O)O)c3)C2=O)ccc1O` belongs > 20 µM (inactive); to `Cc1cccc(Oc2nc3ccccn3c(=O)c2/C=C(\C#N)c2nc3ccccc3s2)c1`, > 20 µM (inactive).
As to `O=C(C1=NN(c2ccccc2)C2C(=O)N(c3ccccc3)C(=O)C12)c1ccccc1` (stereo unspecified), the EC50 was > 20 µM (inactive).
As for `O=C1Nc2ccccc2C1C=NN1CCOCC1` (stereo unspecified), the figure is > 20 µM (inactive); as for `Nc1ccc2c3c(cccc13)C(=O)N(c1ccccc1)C2=O`, 0.415 µM.
To `CCNc1ccc(OC)nc1` belongs > 20 µM (inactive); to `CCNC(=O)[C@H]1O[C@@H](n2cnc3c(N)ncnc32)C(O)[C@H]1O` (stereo partly specified), less than 0.039 µM.
As for `NS(=O)(=O)c1ccc(NC(NC(=O)c2ccco2)C(=O)c2ccc(Cl)cc2)cc1` (stereo unspecified), the figure is > 20 µM (inactive); as for `COc1cccc(CN2COc3ccc4c(c3C2)O/C(=C\c2ccncc2)C4=O)c1`, 11.1 µM; as for `COc1cc(/C=C(/C#N)c2nc3cc(Cl)ccc3s2)ccc1O`, > 20 µM (inactive).

The values are drawn from PubChem BioAssay AID1259426 (Fisher Drug Discovery Resource Center, 2018).
